Data from ChEMBL document CHEMBL1201862, “PubChem BioAssay data set” (2004).
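All cell lines were grown in 96-well plates and treated with compound for 48 hours. GI50 = concentration required for 50% inhibition of growth.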 The source made the active and inactive calls. Rule as the data show it: active = GI50 up to about 1.1 µM and inactive = higher.

Key:
Assay in all cases: DTP human tumour cell line panel, 48 h
SF-539 = system: SF-539
SF-295 = system: SF-295
UO-31 = system: UO-31
SNB-75 = system: SNB-75
K562 = system: K562
NCI-H23 = system: NCI-H23
HOP-62 = system: HOP-62
HCC 2998 = system: HCC 2998
DMS-273 = system: DMS-273
A549 = system: A549
NCI-H522 = system: NCI-H522
SF-268 = system: SF-268
XF498 = system: XF498
SNB-78 = system: SNB-78
KM-20L2 = system: KM-20L2
NCI-H226 = system: NCI-H226
MOLT-4 = system: MOLT-4
HCT-15 = system: HCT-15
SR = system: SR
Malme-3M = system: Malme-3M
EKVX = system: EKVX
HL-60 = system: HL-60
CCRF-CEM = system: CCRF-CEM
SW-620 = system: SW-620
M19-MEL = system: M19-MEL
DLD-1 = system: DLD-1
SK-MEL-5 = system: SK-MEL-5
786-0 = system: 786-0
DMS-114 = system: DMS-114
SK-MEL-28 = system: SK-MEL-28
HOP-92 = system: HOP-92
SN12C = system: SN12C
HCT-116 = system: HCT-116
UACC-62 = system: UACC-62
OVCAR-8 = system: OVCAR-8
U-251 = system: U-251
LXFL 529 = system: LXFL 529
SK-OV-3 = system: SK-OV-3
COLO 205 = system: COLO 205
ACHN = system: ACHN
RPMI-8226 = system: RPMI-8226
OVCAR-3 = system: OVCAR-3
RXF 393 = system: RXF 393
KM12 = system: KM12
NCI-H460 = system: NCI-H460
HOP-18 = system: HOP-18
UACC-257 = system: UACC-257
HT-29 = system: HT-29
SK-MEL-2 = system: SK-MEL-2
OVCAR-4 = system: OVCAR-4
M14 = system: M14
IGROV-1 = system: IGROV-1
A498 = system: A498
SNB-19 = system: SNB-19
CAKI-1 = system: CAKI-1
LOX IMVI = system: LOX IMVI
RXF 631 = system: RXF 631
TK-10 = system: TK-10
OVCAR-5 = system: OVCAR-5

## COc1cc2c(c(OC)c1OC)-c1ccc(SC)c(=O)cc1C(CC(=O)Oc1cccc(C#N)c1)C2 (configuration not stated)
SF-539
  GI50: 0.221 µM (active)
SF-295
  GI50: 0.266 µM (active)
UO-31
  GI50: 1.67 µM (inactive)
SNB-75
  GI50: 0.291 µM (active)
K562
  GI50: 0.181 µM (active)
NCI-H23
  GI50: 0.454 µM (active)
HOP-62
  GI50: 0.638 µM (active)
HCC 2998
  GI50: 0.254 µM (active)
DMS-273
  GI50: 0.2 µM (active)
A549
  GI50: 0.516 µM (active)
NCI-H522
  GI50: 187 nM (active)
SF-268
  GI50: 0.512 µM (active)
XF498
  GI50: 316 nM (active)
SNB-78
  GI50: 0.57 µM (active)
KM-20L2
  GI50: 0.208 µM (active)
NCI-H226
  GI50: 222 nM (active)
MOLT-4
  GI50: 0.536 µM (active)
HCT-15
  GI50: 330 nM
SR
  GI50: 134 nM (active)
Malme-3M
  GI50: 0.175 µM (active)
EKVX
  GI50: 0.574 µM (active)
HL-60
  GI50: 0.254 µM (active)
CCRF-CEM
  GI50: 0.337 µM (active)
SW-620
  GI50: 0.327 µM (active)
M19-MEL
  GI50: 0.303 µM (active)
DLD-1
  GI50: 0.388 µM (active)
SK-MEL-5
  GI50: 0.313 µM (active)
786-0
  GI50: 0.475 µM (active)
DMS-114
  GI50: 0.251 µM (active)
SK-MEL-28
  GI50: 0.724 µM (active)
HOP-92
  GI50: 2.31 µM (inactive)
SN12C
  GI50: 480 nM (active)
HCT-116
  GI50: 0.387 µM (active)
UACC-62
  GI50: 0.202 µM (active)
OVCAR-8
  GI50: 0.423 µM (active)
U-251
  GI50: 0.354 µM (active)
LXFL 529
  GI50: 0.516 µM (active)
SK-OV-3
  GI50: 0.046 µM (active)
COLO 205
  GI50: 0.336 µM (active)
ACHN
  GI50: 0.593 µM (active)
RPMI-8226
  GI50: 0.583 µM (active)
OVCAR-3
  GI50: 0.232 µM (active)
RXF 393
  GI50: 167 nM (active)
KM12
  GI50: 0.292 µM (active)
NCI-H460
  GI50: 0.365 µM (active)
HOP-18
  GI50: > 100 µM (inactive)
UACC-257
  GI50: 0.516 µM (active)
HT-29
  GI50: 0.276 µM (active)
SK-MEL-2
  GI50: 0.348 µM (active)
OVCAR-4
  GI50: 3.32 µM (inactive)
M14
  GI50: 0.298 µM (active)
IGROV-1
  GI50: 2.06 µM (inactive)
A498
  GI50: 0.015 µM (active)
SNB-19
  GI50: 678 nM (active)
CAKI-1
  GI50: 3.42 µM (inactive)
LOX IMVI
  GI50: 0.484 µM (active)

## COc1ccc2c(c1)C1(C=N2)CCN(C(C)=O)CC1
SF-539
  GI50: > 100 µM (inactive)
SF-295
  GI50: > 100 µM (inactive)
SNB-75
  GI50: 41.1 µM (inactive)
K562
  GI50: > 100 µM (inactive)
NCI-H23
  GI50: > 100 µM (inactive)
HOP-62
  GI50: > 100 µM (inactive)
HCC 2998
  GI50: > 100 µM (inactive)
DMS-273
  GI50: > 100 µM (inactive)
A549
  GI50: > 100 µM (inactive)
SF-268
  GI50: 48 µM (inactive)
SNB-78
  GI50: > 100 µM (inactive)
KM-20L2
  GI50: > 100 µM (inactive)
MOLT-4
  GI50: 82 µM (inactive)
HCT-15
  GI50: > 100000 nM
Malme-3M
  GI50: > 100 µM (inactive)
EKVX
  GI50: > 100 µM (inactive)
HL-60
  GI50: > 100 µM (inactive)
CCRF-CEM
  GI50: > 100 µM (inactive)
RXF 631
  GI50: > 100 µM (inactive)
TK-10
  GI50: > 100 µM (inactive)
SW-620
  GI50: > 100 µM (inactive)
M19-MEL
  GI50: > 100 µM (inactive)
DLD-1
  GI50: > 100 µM (inactive)
SK-MEL-5
  GI50: > 100 µM (inactive)
786-0
  GI50: > 100 µM (inactive)
DMS-114
  GI50: 60.5 µM (inactive)
SK-MEL-28
  GI50: > 100 µM (inactive)
HOP-92
  GI50: 87.9 µM (inactive)
OVCAR-5
  GI50: > 100 µM (inactive)
HCT-116
  GI50: > 100 µM (inactive)
UACC-62
  GI50: > 100 µM (inactive)
OVCAR-8
  GI50: > 100 µM (inactive)
U-251
  GI50: > 100 µM (inactive)
LXFL 529
  GI50: > 100 µM (inactive)
SK-OV-3
  GI50: > 100 µM (inactive)
COLO 205
  GI50: > 100 µM (inactive)
ACHN
  GI50: > 100 µM (inactive)
RPMI-8226
  GI50: 50.4 µM (inactive)
OVCAR-3
  GI50: > 100 µM (inactive)
KM12
  GI50: 57.7 µM (inactive)
NCI-H460
  GI50: > 100 µM (inactive)
HOP-18
  GI50: 41.5 µM (inactive)
UACC-257
  GI50: > 100 µM (inactive)
HT-29
  GI50: > 100 µM (inactive)
SK-MEL-2
  GI50: > 100 µM (inactive)
OVCAR-4
  GI50: > 100 µM (inactive)
M14
  GI50: > 100 µM (inactive)
IGROV-1
  GI50: > 100 µM (inactive)
A498
  GI50: > 100 µM (inactive)
CAKI-1
  GI50: > 100 µM (inactive)
LOX IMVI
  GI50: > 100 µM (inactive)
